# Laboratory results from ChEMBL document CHEMBL6109159, “Discovery of a Potent and Selective Protein Arginine Methyltransferase 5 (PRMT5) PROTAC Degrader” (J Med Chem, 2025).
# Calls of active or inactive are those of the source. No cut-off for these calls is given here.
# What was measured:
# [1] = biological target: T1, von Hippel-Lindau disease tumor suppressor/Protein arginine N-methyltransferase 5 (Homo sapiens, UniProt O14744+P40337); test: PROTAC activity at PRMT5/VHL in human MDA-MB-468 cells assessed as degradation measured at 0.5 to 5 uM after 24 hrs by Western blot analysis; format: cell-based; conditions: dose 0.5-5 µM
# [2] = biological target: T2, von Hippel-Lindau disease tumor suppressor/Methylosome protein WDR77 (Homo sapiens, UniProt Q9BQA1+P40337); test: PROTAC activity at MEP50/VHL in human MDA-MB-468 cells assessed as degradation measured at 0.5 to 5 uM after 24 hrs by Western blot analysis; format: cell-based; conditions: dose 0.5-5 µM
# [3] = biological target: T1, von Hippel-Lindau disease tumor suppressor/Protein arginine N-methyltransferase 5; test: PROTAC activity at PRMT5/VHL in human MCF-10A cells assessed as degradation at 0.5 to 5 uM after 3 days by Western blot analysis; format: cell-based; conditions: dose 0.5-5 µM, time 3.0 day
# MCF-10A [4] = test: PROTAC activity at MEP50/VHL in human MCF-10A cells assessed as degradation at 0.5 to 5 uM after 3 days by Western blot analysis; format: cell-based; conditions: dose 0.5-5 µM, time 3.0 day
# [5] = biological target: T2, von Hippel-Lindau disease tumor suppressor/Methylosome protein WDR77; test: PROTAC activity at MEP50/VHL in human PNT2 cells assessed as degradation at 0.5 to 5 uM after 3 days by Western blot analysis; format: cell-based; conditions: dose 0.5-5 µM, time 3.0 day
# MCF-10A [6] = test: Cytotoxicity against human MCF10A cells assessed as cell viability up to 15 uM measured after 5 days by CCK-8 assay; format: toxicity, cell-based; conditions: 120 h, time 5 day
# [7] = PROTAC activity at PRMT5/VHL in human PNT2 cells assessed as degradation at 0.5 to 5 uM after 3 days by Western blot analysis; conditions: dose 0.5-5 µM, time 3.0 day
# [8] = biological target: T1, von Hippel-Lindau disease tumor suppressor/Protein arginine N-methyltransferase 5; test: PROTAC activity at PRMT5/VHL in human MDA-MB-468 cells assessed as maximal degradation at 5 uM measured after 72 hrs by Western blot analysis relative to control; format: cell-based
# [9] = biological target: T2, von Hippel-Lindau disease tumor suppressor/Methylosome protein WDR77; test: PROTAC activity at MEP50/VHL in human MDA-MB-468 cells assessed as maximal degradation at 5 uM measured after 72 hrs by Western blot analysis relative to control; format: cell-based
# [10] = biological target: T1, von Hippel-Lindau disease tumor suppressor/Protein arginine N-methyltransferase 5; test: PROTAC activity at PRMT5/VHL in human MDA-MB-468 cells assessed as degradation at 2 uM measured up to 12 hrs by Western blot analysis; format: cell-based
# [11] = biological target: T2, von Hippel-Lindau disease tumor suppressor/Methylosome protein WDR77; test: PROTAC activity at MEP50/VHL in human MDA-MB-468 cells assessed as degradation at 2 uM measured up to 48 hrs by Western blot analysis; format: cell-based
# [12] = biological target: Protein arginine N-methyltransferase 5 (Homo sapiens, UniProt O14744); test: Inhibition of PRMT5 (unknown origin) using S-adenosylmethionine (SAM) using as substrate preincubated for 30 mins followed by substrate addition measured after 60 mins by microplate reader
# MDA-MB-468 [13] = test: Cytotoxicity against human MDA-MB-468 cells assessed as cell viability measured after 7 days by CCK-8 assay; format: functional; conditions: MDA-MB-468, 168 h, time 7 day
# [14] = biological target: T1, von Hippel-Lindau disease tumor suppressor/Protein arginine N-methyltransferase 5; test: PROTAC activity at PRMT5/VHL in human MCF7 cells assessed as degradation at 0.5 uM after 3 days by Western blot analysis; format: cell-based; conditions: time 3.0 day
# [15] = biological target: T1, von Hippel-Lindau disease tumor suppressor/Protein arginine N-methyltransferase 5; test: PROTAC activity at PRMT5/VHL in human MCF7 cells assessed as degradation at 5 uM after 3 days by Western blot analysis; format: cell-based; conditions: time 3.0 day
# [16] = biological target: T2, von Hippel-Lindau disease tumor suppressor/Methylosome protein WDR77; test: PROTAC activity at MEP50/VHL in human MCF7 cells assessed as degradation at 0.5 uM after 3 days by Western blot analysis; format: cell-based; conditions: time 3.0 day
# [17] = biological target: T2, von Hippel-Lindau disease tumor suppressor/Methylosome protein WDR77; test: PROTAC activity at MEP50/VHL in human MCF7 cells assessed as degradation at 5 uM after 3 days by Western blot analysis; format: cell-based; conditions: time 3.0 day
# [18] = biological target: T1, von Hippel-Lindau disease tumor suppressor/Protein arginine N-methyltransferase 5; test: PROTAC activity at PRMT5/VHL in human MDA-MB-468 cells assessed as degradation measured at 0.5 uM after 72 hrs by Western blot analysis; format: cell-based
# [19] = biological target: T1, von Hippel-Lindau disease tumor suppressor/Protein arginine N-methyltransferase 5; test: PROTAC activity at PRMT5/VHL in human MDA-MB-468 cells assessed as degradation measured at 5 uM after 72 hrs by Western blot analysis; format: cell-based
# [20] = biological target: T2, von Hippel-Lindau disease tumor suppressor/Methylosome protein WDR77; test: PROTAC activity at MEP50/VHL in human MDA-MB-468 cells assessed as degradation measured at 0.5 uM after 72 hrs by Western blot analysis; format: cell-based
# [21] = biological target: T2, von Hippel-Lindau disease tumor suppressor/Methylosome protein WDR77; test: PROTAC activity at MEP50/VHL in human MDA-MB-468 cells assessed as degradation measured at 5 uM after 72 hrs by Western blot analysis; format: cell-based
# [22] = biological target: T1, von Hippel-Lindau disease tumor suppressor/Protein arginine N-methyltransferase 5; test: PROTAC activity at PRMT5/VHL in human PC-3 cells assessed as degradation at 0.5 to 5 uM after 7 hrs by Western blot analysis; format: cell-based; conditions: dose 0.5-5 µM
# [23] = biological target: T2, von Hippel-Lindau disease tumor suppressor/Methylosome protein WDR77; test: PROTAC activity at MEP50/VHL in human PC-3 cells assessed as degradation at 0.5 to 5 uM after 7 hrs by Western blot analysis; format: cell-based; conditions: dose 0.5-5 µM
# MDA-MB-468 [24] = test: Inhibition of sDMA (symmetric dimethylarginine) level in human MDA-MB-468 cells at 0.5 uM measured after 72 hrs by Western blot analysis; format: functional, cell-based
# MDA-MB-468 [25] = test: Inhibition of sDMA (symmetric dimethylarginine) level in human MDA-MB-468 cells at 5 uM measured after 72 hrs by Western blot analysis; format: functional, cell-based
# MDA-MB-468 [26] = test: Inhibition of sDMA (symmetric dimethylarginine) level in human MDA-MB-468 cells at 2 uM measured after 7 days by Western blot analysis; format: functional, cell-based; conditions: time 7.0 day
# T1 sequence (O14744 whole entry, looked up): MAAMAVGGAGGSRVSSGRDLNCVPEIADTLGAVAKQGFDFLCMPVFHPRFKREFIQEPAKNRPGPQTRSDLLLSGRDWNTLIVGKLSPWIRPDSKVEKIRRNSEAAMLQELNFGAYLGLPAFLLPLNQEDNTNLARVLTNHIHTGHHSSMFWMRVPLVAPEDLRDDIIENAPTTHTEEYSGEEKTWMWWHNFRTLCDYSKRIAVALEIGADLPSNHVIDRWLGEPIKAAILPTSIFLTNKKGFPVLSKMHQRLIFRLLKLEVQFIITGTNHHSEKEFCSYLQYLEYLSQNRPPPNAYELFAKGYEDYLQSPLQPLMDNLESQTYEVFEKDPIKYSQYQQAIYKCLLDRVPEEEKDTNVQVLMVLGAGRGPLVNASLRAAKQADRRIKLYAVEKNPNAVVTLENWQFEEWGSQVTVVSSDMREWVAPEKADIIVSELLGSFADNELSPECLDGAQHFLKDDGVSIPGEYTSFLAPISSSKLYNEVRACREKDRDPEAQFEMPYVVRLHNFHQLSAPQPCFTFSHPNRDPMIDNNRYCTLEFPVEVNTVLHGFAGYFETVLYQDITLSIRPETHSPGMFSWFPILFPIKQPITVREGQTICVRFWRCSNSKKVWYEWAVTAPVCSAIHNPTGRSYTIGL
# T1 sequence (P40337 whole entry, looked up): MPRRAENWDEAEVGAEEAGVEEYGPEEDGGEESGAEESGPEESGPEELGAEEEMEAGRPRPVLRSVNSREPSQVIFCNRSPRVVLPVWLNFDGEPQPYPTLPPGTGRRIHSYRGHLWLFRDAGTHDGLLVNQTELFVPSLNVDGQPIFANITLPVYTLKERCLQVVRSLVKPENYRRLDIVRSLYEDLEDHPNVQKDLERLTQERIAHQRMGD
# T2 sequence (P40337 whole entry, looked up): as above
# T2 sequence (Q9BQA1 whole entry, looked up): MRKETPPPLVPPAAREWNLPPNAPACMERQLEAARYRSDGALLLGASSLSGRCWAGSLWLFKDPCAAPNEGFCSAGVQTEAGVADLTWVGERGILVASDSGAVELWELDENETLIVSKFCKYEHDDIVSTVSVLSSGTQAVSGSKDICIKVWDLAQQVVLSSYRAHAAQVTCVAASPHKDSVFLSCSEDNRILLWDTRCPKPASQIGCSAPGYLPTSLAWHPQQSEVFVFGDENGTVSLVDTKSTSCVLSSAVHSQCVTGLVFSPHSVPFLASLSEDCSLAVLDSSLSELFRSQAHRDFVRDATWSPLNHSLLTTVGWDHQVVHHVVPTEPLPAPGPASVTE
# Protein arginine N-methyltransferase 5, sequence (O14744 whole entry): as the sequence (O14744 whole entry, looked up) above
Activity [18],Activity [19],Activity [20],Activity [21],Activity [22],Activity [23],Compound,GI50 (MDA-MB-468 [13]) [µM],further results
–,–,–,–,–,–,O=C1CCC(N2C(=O)c3ccc(NCCCCCCCCCC(=O)N4CCC(Nc5cc(C(=O)NC[C@H](O)CN6CCc7ccccc7C6)ncn5)CC4)cc3C2=O)C(=O)N1 (some centres undefined),–,Activity [1]: inactive; Activity [2]: inactive; Activity [3]: 50%; Activity (MCF-10A [4]): 50%; Activity [5]: 50%; Activity (MCF-10A [6]): Toxic; Activity [7]: 50%
–,–,–,–,–,–,Cc1ncsc1-c1ccc([C@H](C)NC(=O)[C@@H]2C[C@@H](O)CN2C(=O)[C@@H](NC(=O)COCCOCCOCCOCCOCC(=O)N2CC(Nc3cc(C(=O)NC[C@H](O)CN4CCc5ccccc5C4)ncn3)C2)C(C)(C)C)cc1,> 20,Activity [8]: 50%; Activity [9]: 50%; Activity [10]: Active; Activity [11]: inactive; IC50 [12]: 0.69 µM; Activity [14]: Active; Activity [15]: Active; Activity [16]: Active; Activity [17]: Active
inactive,inactive,inactive,inactive,inactive,inactive,Cc1ncsc1-c1ccc([C@H](CC(=O)NCCOCCOCCOCCOCCOCCC(=O)N2CCC(Nc3cc(C(=O)NC[C@H](O)CN4CCCCC4)ncn3)CC2)NC(=O)[C@@H]2C[C@@H](O)CN2C(=O)[C@@H](NC(=O)C2(F)CC2)C(C)(C)C)cc1,> 20,–
inactive,inactive,inactive,inactive,inactive,inactive,Cc1ncsc1-c1ccc([C@H](CC(=O)NCCOCCOCCOCCOCCOCCC(=O)N2CCC(Nc3cc(C(=O)NC[C@H](O)CN4CCc5ccccc5C4)ncn3)CC2)NC(=O)[C@@H]2C[C@H](O)CN2C(=O)[C@@H](NC(=O)C2(F)CC2)C(C)(C)C)cc1,9.9,–
inactive,inactive,inactive,inactive,–,–,O=C(NC[C@H](O)CN1CCc2ccccc2C1)c1cc(NC2COC2)ncn1,0.23,inhibition (MDA-MB-468 [24]): Active; inhibition (MDA-MB-468 [25]): Active; inhibition (MDA-MB-468 [26]): Active; Compound Inhibited Greater Extent Than Ms4322
